From patent US20220296629A1, “HUMAN HEAD AND NECK CANCER TREATMENT” (CARMEL HAIFA […] CORPORATION LTD., priority 2019, published 2022) come the findings set out here.

The test system of series [1] is Fadu cells. Kind of series: Fadu xenograft tumor growth in athymic nude mice. Type of series: in vivo. The settings on record: tumors harvested 21 days post treatment, P<0.0001. The method, then:
FIG. 6 includes a graph presenting data from 16 athymic nude male mice which were subcutaneously injected with 1×10^6 Fadu cells. When the tumors reached a volume of 200 mm^3 the mice were divided into 2 groups of 8 mice each, with a similar dispersal of tumor volumes. Mice were injected once a week with intraperitoneal (IP) injection of either PBS×1 to the control group, or 1×10^10 vp AD-miR-193a, for 3 weeks. During the experiments, tumor volumes were measured twice a week using caliber meter. The results presented are the mean±SE. n=8 mice per experimental group.
FIGS. 7A-7B include vertical bar graphs showing the effect of miR-193a on final tumor weight (7A) and volume (7B). The results presented are the mean±SE. n=8 tumors per experimental group. Statistical significance for tumor weight determined by Mann-Whitney and for tumor volume by two-tailed Student's t-test (treatment vs. control). ***P<0.01.
Xenograft animal model were generated via injection of 1×10^6 Fadu cells in Matrigel subcutaneous in athymic nude mice immunodeficient mice. When the tumors reached a volume of 200 mm^3 the mice were divided into 2 groups of 8 mice each, with a similar dispersal of tumor volumes. […]
Tumors were measured by electronic calliper, once a week. 21 days post treatment the tumors were harvested and weight was measured.
The animals were sacrificed, and the tumors were removed, weighed and measured. […]

For series [2], the system named is Fadu cells. Nature of the series: XTT cell viability after transient transfection of Fadu cells. The series is classed as cell-based. The settings on record: 1 μg plasmid, 48 hours post transfection, viability reduced to. The method, then: FIG. 2 includes a vertical bar graph of cell viability following miR-193a-5p plasmid transfection. Squamous cancer cells Fadu were transfected with pCMV-miR-193a, or with p-CMV-GFP (MOC plasmid), 48 hours post transfection. cell viability was detected by XTT. Presented data are means±SD of three experiments, each conducted in eight replicates, and are expressed as percentages of the respective control. ***P<0.001(Dunnett's test).
FIG. 3 includes a vertical bar graph of cell viability following miR-193a-5p plasmid transfection time course experiment. Squamous cancer cells Fadu were transfected with miR-193a-5p or with MOC plasmid, 24 hours, 48 hours and 72 hours post transfection. cell viability was detected by XTT. Presented data are means±SD of three experiments, each conducted in eight replicates, and are expressed as percentages of the respective control. Statistical significance determined by a two-tailed student's t-test. Significance was determined as follows: *P<0.05, **P<0.01 and ***P<0.001.
Fadu Cells were seeded in a 96 well plate (3×10^4 cells/well). […]
At the end of treatment, cell viability was measured using XTT. The data presented are average of at least three independent experiments; 8 repeats each (means±SEM), and are expressed as percentage of the respective vehicle treated control. […]

For a further series, the system named is miR-193a. Kind of series: miR-193a expression levels in Fadu cells by quantitative real-time PCR. Type of series: cell-based, Homo sapiens. The settings on record: 5 μM, 48 hours, U6 normalization, vs 0.01% DMSO control. On the procedure: FIG. 8 includes a vertical bar graph showing Real-time analysis of miRNA expression patterns in Fadu Cells. The expression levels of miRNAs; hsa-mir193a were analysed using Quantitative real-time PCR, following 5-aza-2′ -deoxycytidine cell treatment. Data represented as average of three independent experiments conducted in triplicates (mean±SD) and U6 was used as normalization. Statistical significance determined by a two-tailed Student's t-test. Significance was determined as follows: ***P<0.01.
miRNA was isolated using mirVana™ miRNA Isolation Kit (Ambion®) according the manufacturer's protocol, the mirVana™ kit utilizes two sequential GFFs, since the small […]
The concentration and purity of miRNA was assessed using NanoDrop™ lite spectrophotometer (NanodropTechnologies, Willmington, Del., USA). miRNA expression profiling was performed using the TaqMan microRNA arrays system (Applied Biosystems) with specific TaqMan primers and probes for miR-193a. cDNA was generated using TaqMan microRNA assay using Primers for the mir-193a with FAM/MGB. […] Real time PCR was carried out with Rotor Gene 6000 Real-Time PCR Machine-Bosch-Bosch, results were analyzed with delta delta Ct (ΔΔCt) method using the rotor Gene 6000 Real-Time PCR software. […]
miRNA were isolated, quantified, profiled and cDNA was generated. […]
In general terms: Quantitative PCR measures a nucleic acid by following its amplification.

Consider “miR-193a: Homo sapiens miR-193a, SEQ ID NO:1 UGGGUCUUUGCGGGCGAGAUGA; delivered as CMV plasmid or adenovirus AD-miR-193a (listed as Homo sapiens)”, for which, in the series with Fadu cells [1], the “Final tumor volume vs control” value was “significantly reduced” and the “Final tumor weight vs control” value was “significantly reduced”. Moreover, in the series with Fadu cells [2] (first experiment), the “Cell viability (XTT), percentage of control” value is “approximately 70%”. The “Cell viability (XTT), percentage of control” value in the series on Fadu cells [2] (second and third experiment) was about 40%.

For the compound `Nc1ncn([C@H]2C[C@H](O)[C@@H](CO)O2)c(=O)n1` [5-aza, 5-aza-2′ -deoxycytidine], the “Increase in miR-193a expression levels” value with miR-193a is 132 folds.
